These results are taken from US20020032177A1, “Use of D-chiro-inositol in the treatment of conditions associated with hypothalamic gene expression” (Insmed Pharmaceuticals, Inc., priority 2000, published 2002).

One assay has as its system NPY mRNA. As to the kind of experiment: NPY mRNA levels in diet-induced obese mice. Format: in vivo. An excerpt: (§1) A high calorie diet (compositionally equivalent to the typical American diet) will induce obesity and diabetes in some mouse strains (e.g., C57BL/6J) but not others (e.g., A/J). […] These changes in hypothalamic gene expression are ultimately regulated by insulin, although part of the effect may be mediated indirectly by the effect of insulin on leptin synthesis in fat, which then feeds back to hypothalamus to enhance the direct effect of insulin on the hypothalamus. By enhancing the rate of translation and secretion of leptin this hypothalamic response is blocked or attenuated.
(§2) FIG. 1 and FIG. 2 depicts the results of studies in the diet induced mice on NPY and AGRP mRNA levels. DCI leads to lower NPY and AGRP mRNA.

A further assay deals with plasma leptin. As to the kind of experiment: Plasma leptin in mice after DCI administration. Format: in vivo. The note with it: FIG. 4. The source says: (§3) FIG. 3 and FIG. 4 depict, respectively, the effect of DCI administration on leptin mRNA and plasma leptin in mice. […] Thus, DCI enhances the rate of translation and secretion of leptin.
The next assay concerns AGRP mRNA. Briefly: AGRP mRNA levels in diet-induced obese mice. Format: in vivo. As to conditions: FIG. 2.
Source text: as §1, §2

For assay [1], the system named is leptin mRNA. Briefly: Leptin mRNA in mice after DCI administration. Format: in vivo. The note with it: FIG. 3.
Source text: as §3

A short description of assay [2]: Adiposity of mice after DCI administration. In kind it is in vivo. As to conditions: fed and 48-hour fasted.
Source text: as §3

For assay [3] the following is noted: obese rodents and humans; cited from earlier work.
For assay [4] the following is noted: women with PCOS; cited from earlier work.
For assay [5] the following is noted: lean (wild-type) mice, daily injections; cited from earlier work.
For assay [6] the following is noted: ob/ob mice, daily injections; cited from earlier work.
Assay [7] deals with leptin mRNA. The note with it: elevation of leptin by injection; cited from earlier work.

Where two headings read alike, the source gives them in different places.

Regarding `OC1C(O)C(O)C(O)C(O)C1O` [DCI, D-chiro-inositol], in the assay on NPY mRNA (diet induced mice, FIG. 1), the “NPY mRNA” value is “lower”. Besides, in the assay on NPY mRNA (fasted state, diet-induced obese mice), the “effect of fasting on NPY and AGRP mRNA” value is “blocks or attenuates the effect of fasting”. For the same molecule, the “increase of plasma leptin” value is given as “over 5 fold” in the assay with plasma leptin (48-hour fasted mice) and “over 2 fold” in the assay on plasma leptin (fed mice). Moreover, the “AGRP mRNA” value with AGRP mRNA is “lower”. Further, the “leptin mRNA” value in the assay with leptin mRNA [1] is on record as “decrease”. For the same molecule, in [2], the adiposity result was “without increasing adiposity”.
Turning to `CN(C)C(=N)N=C(N)N` [Metformin], in assay [3], the food intake entry was “decreases”. In assay [4], the fertility entry was “partially restores”.

B1: leptin: product of the obese (ob) gene, secreted by adipose cells; given as daily injections of recombinant protein (protein, UniProt P41160 22-167, looked up)
Leptin: VPIQKVQDDTKTLIKTIVTRINDISHTQSVSAKQRVTGLDFIPGLHPILSLSKMDQTLAVYQQVLTSLPSQNVLQIANDLENLRDLLHLLAFSKSCSLPQTSGLQKPESLDGVLEASLYSTEVVALSRLQGSLQDILQQLDVSPEC
Consider B1, for which, in assay [5], the “food intake and body weight” value is “modest decreases”. Further, in assay [6], the “body weight and fat” value was “reduction”; the food intake entry was “markedly inhibited”. Further, the “leptin mRNA” value with leptin mRNA [7] is listed as “pronounced decreases”.
